Laboratory results taken from patent US20230124720A1, “APPLICATION OF ACRIDINEDIONE COMPOUND IN PREPARATION OF ANTI-DIABETIC DRUGS” (THE FOURTH MILITARY MEDICAL UNIVERSITY, priority 2020, published 2023).

Assays:
STZ-induced T2DM rats [1] = assay: Postprandial blood glucose in STZ-induced T2DM rats; assay type: in vivo, rat; conditions: end of administration
Method: (§1) 150 male SD rats, housed in cages in a clean constant temperature (23±2° C.) and humidity (55±10%) animal house, were manually adjusted on a daily 12 h/12 h diurnal light cycle with free access to water. After 3 days of adaptive feeding, 150 rats were randomly divided into normal and model groups. The normal (Con, n=15) group of rats remained on raw chow and the model group (n=135) of rats were given high fat high sugar chow. All rats were fed twice daily and the amount of feed was adjusted as needed to ensure adequate feed. After 8 weeks of group feeding, the model group rats were given an intraperitoneal injection of 25 mg/kg STZ solution with a 12 h fast prior to injection. After injection, feeding was continued as in the original method, blood was taken from the tail vein at 72 h for blood glucose measurement, and rats with fasting blood glucose levels ≥11.1 mmol/L on different days were screened for successful artificial induction of T2DM and administered in groups for the next experiment. 135 rats with successful modeling were randomly divided into 9 groups: […] (2) 0.01 mg/kg ADD-16 administration group (ADD I, n=15): daily administration of 0.01 mg/kg ADD-16 solution by gavage; (3) 0.1 mg/kg ADD-16 administration group (ADD II, n=15): daily administration of a 0.1 mg/kg ADD-16 solution by gavage; (4) 1 mg/kg ADD-16 administration group (ADD III, n=15): daily administration of a 1 mg/kg ADD-16 solution by gavage; (5) 3 mg/kg ADD-16 administration group (ADD IV, n=15): daily administration of a 3 mg/kg ADD-16 solution by gavage; (6) 10 mg/kg ADD-16 administration group (ADD V, n=15): daily administration of a 10 mg/kg ADD-16 solution by gavage; (7) 50 mg/kg ADD-16 administration group (ADD VI, n=15): daily administration of a 50 mg/kg ADD-16 solution by gavage; […] (9) Sitagliptin control group (ST, n=15): daily administration of a 6 mg/kg sitagliptin solution by gavage. […] Relevant indicators of lipid metabolism were measured after the end of the study.

STZ-induced T2DM rats [2] = assay: Insulin tolerance test (ITT) in T2DM rats; assay type: in vivo, rat
Method: as §1, with “study. […] After the 120 min blood glucose value determination was completed, the diet was resumed. In the test, the condition of the rats was observed, and when abnormalities occurred, the experiment was stopped in time and a glucose solution was given by gavage to prevent death due to hypoglycemia.” for “study.”

MIN6 cells [3] = assay: Insulin secretion in PA-induced insulin-resistant MIN6 cells; assay type: cell-based, mouse; conditions: PA-induced IR model, 10 μmol/L, 24 h, 2.8 and 16.7 mmol/L glucose; P<0.001
Method: MIN6 cells were seeded in 24-well plates and cultured as described in step 2.1 to a cell confluency of more than 80% and administrated in the following groups, with 12 replicates per group: (1) normal control group (Con): cultured with blank 1640 medium; (2) insulin resistance model panel (IR): treated with 0.125 mmol/L PA for 24 h to induce establishment of an insulin resistance model; (3) ADD-16 administration group (ADD): 10 μmol/L ADD-16 intervention was administered for 24 h after successful establishment of the insulin resistance model; (4) TAK875 control group (TAK875): 10 μmol/L TAK875 was administered as a positive control drug intervention for 24 h after successful establishment of the insulin resistance model; (5) metformin control group (MT): 10 mmol/L metformin was administered as a positive control drug intervention for 24 h after successful establishment of the insulin resistance model; (6) sitagliptin control group (ST): 10 μmol/L sitagliptin was administered as a positive control drug intervention for 24 h after successful establishment of the insulin resistance model. After the group administration, the medium was aspirated and washed 2 times with a KRB buffer without sugar, followed by the addition of the KRB buffer without sugar. […] After incubation at 37° C. for 1 h, all the medium in the wells was aspirated and centrifuged at 2000 rmp/min for 20 min, and the supernatant was collected and stored at −20° C. The insulin content was measured for each group.

MIN6 cells [4] = assay: Western Blot / immunofluorescence of insulin signaling related molecules in insulin-resistant MIN6 cells; assay type: cell-based, mouse; conditions: insulin-resistant MIN6 cells, 24 h, P<0.001
Method: MIN6 cells were seeded in culture dishes at the appropriate density and cultured as described in step 2.1 to a confluency of about 80%. Cells were divided into the following 5 groups: (1) normal control group (Con): cultured with blank 1640 medium; (2) insulin resistance model panel (IR): treatment with 0.125 mmol/L PA for 24 h to induce establishment of a MIN6 cell insulin resistance model; (3) 3 μmol/L ADD-16 administration group (ADD I): 3 μmol/L ADD-16 intervention was given for 24 h after successful establishment of the insulin resistance model; (4) 10 μmol/L ADD-16 administration group (ADD II): 10 μmol/L ADD-16 intervention was given for 24 h after successful establishment of the insulin resistance model; (5) TAK875 control group (TAK875): 10 μmol/L TAK875 was administered as a positive control drug intervention for 24 h after successful establishment of the insulin resistance model. At the end of the group administration, groups of cells were harvested for WB or IF experiments.

[5] = MT group, 250 mg/kg daily by gavage
[6] = ST group, 6 mg/kg daily by gavage

Compound	reduction in blood glucose compared to the TD group (STZ-induced T2DM rats [1]; [5])	decrease of ITT AUC compared to the TD group (STZ-induced T2DM rats [2]; [5])	reduction in blood glucose compared to the TD group (STZ-induced T2DM rats [1]; [6])	decrease of ITT AUC compared to the TD group (STZ-induced T2DM rats [2]; [6])	insulin secretion level in insulin-resistant MIN6 cells (in words) (MIN6 cells [3])	expression of insulin signaling-related molecules, Western Blot (in words) (MIN6 cells [4])
CN(C)C(=N)N=C(N)N [metformin, reference compound]	45.0%	39.9%	–	–	–	–
N[C@@H](CC(=O)N1CCn2c(nnc2C(F)(F)F)C1)Cc1cc(F)c(F)cc1F [sitagliptin, reference compound]	–	–	61.5%	51.4%	even higher than in Con group	–
Cc1cc(OCCCS(C)(=O)=O)cc(C)c1-c1cccc(COc2ccc3c(c2)OC[C@H]3CC(=O)O)c1 [TAK875, reference compound]	–	–	–	–	even higher than in Con group	upregulate GPR40, PGC-1α, P-P38, P-EP300, PPARγ, P-AKT, PI3K, IRS1 and GLUT4 expression
